In article PMC6480153, “Discovery of Novel Triazole-Containing Pyrazole Ester Derivatives as Potential Antibacterial Agents” (Molecules, 2019):
≈ marks a conversion by molar mass, not a printed value. Where two headings read alike, the source gives them in different places.

Key:
[1] = test system: Salmonella gallinarum (ATCC-9184); experiment: MIC by agar-dilution method against Salmonella gallinarum; type: cell-based; conditions: 24 h; for MIC: Salmonella enterica, read-out: MIC S.e
Protocol: (§1) In vitro antimicrobial activity of the prepared compounds against four bacteria was evaluated by the conventional agar-dilution method. Ciprofloxacin was selected as a reference standard.
(§2) The solid media Luria-Bertani (LB)-Broth-Agar-Medium (tryptone 10 g/L, yeast 5 g/L, NaCl 10 g/L, agar 15 g/L, and distilled water 1000 mL, adjusted to pH 7.4 was used for testing the antibacterial activity.
(§3) The in vitro antibacterial activity for synthesized compounds 4a–m were evaluated using the agar-dilution method. […] Drugs (10.0 mg) were dissolved in DMSO (1 mL) and the solution was diluted with water (9 mL). […] The bacterial inocula were prepared by suspending 24 h-old bacterial colonies from LB-Broth-Agar-Medium in 0.85% saline. The inocula were adjusted to 0.5 McFarland Standard ([…]). The suspensions were then diluted in 0.85% saline to give 10^7 CFU/mL. Petri dishes were spot-inoculated with 1 μL of each of the prepared bacterial suspensions (10^4 CFU/spot) and incubated at 37 °C for 24 h. […] A control test was also performed with test medium supplemented with DMSO at the same dilutions as used in the experiment in order to ensure that the solvent had no influence on bacterial growth.

[2] = test system: Listeria monocytogenes (ATCC-15313); experiment: MIC by agar-dilution method against Listeria monocytogenes; type: cell-based; conditions: for MIC: read-out: MIC L.m
Protocol: as §1, §2, §3

[3] = test system: Escherichia coli (ATCC-25922); experiment: MIC by agar-dilution method against Escherichia coli; type: cell-based; conditions: 24 h; for MIC E. c: 37 °C
Protocol: as §1, §2, §3

[4] = test system: Staphylococcus aureus (ATCC-12600); experiment: MIC by agar-dilution method against Staphylococcus aureus; type: cell-based; conditions: for MIC: ATCC12600
Protocol: as §1, §2, §3

[5] = molecular target: T1, DNA gyrase (Escherichia coli, UniProt P0AES4+P0AES6); experiment: DNA gyrase (topoisomerase II) supercoiling inhibition, gel electrophoresis; type: biochemical; conditions: Topoisomerase II supercoiling activity; enzyme isolated from Escherichia coli
T1 construct: First, the E. coli suspension is extracted to obtain a crude enzyme solution; endogenous in cells
T1 sequence (P0AES4 whole entry, one chain of several): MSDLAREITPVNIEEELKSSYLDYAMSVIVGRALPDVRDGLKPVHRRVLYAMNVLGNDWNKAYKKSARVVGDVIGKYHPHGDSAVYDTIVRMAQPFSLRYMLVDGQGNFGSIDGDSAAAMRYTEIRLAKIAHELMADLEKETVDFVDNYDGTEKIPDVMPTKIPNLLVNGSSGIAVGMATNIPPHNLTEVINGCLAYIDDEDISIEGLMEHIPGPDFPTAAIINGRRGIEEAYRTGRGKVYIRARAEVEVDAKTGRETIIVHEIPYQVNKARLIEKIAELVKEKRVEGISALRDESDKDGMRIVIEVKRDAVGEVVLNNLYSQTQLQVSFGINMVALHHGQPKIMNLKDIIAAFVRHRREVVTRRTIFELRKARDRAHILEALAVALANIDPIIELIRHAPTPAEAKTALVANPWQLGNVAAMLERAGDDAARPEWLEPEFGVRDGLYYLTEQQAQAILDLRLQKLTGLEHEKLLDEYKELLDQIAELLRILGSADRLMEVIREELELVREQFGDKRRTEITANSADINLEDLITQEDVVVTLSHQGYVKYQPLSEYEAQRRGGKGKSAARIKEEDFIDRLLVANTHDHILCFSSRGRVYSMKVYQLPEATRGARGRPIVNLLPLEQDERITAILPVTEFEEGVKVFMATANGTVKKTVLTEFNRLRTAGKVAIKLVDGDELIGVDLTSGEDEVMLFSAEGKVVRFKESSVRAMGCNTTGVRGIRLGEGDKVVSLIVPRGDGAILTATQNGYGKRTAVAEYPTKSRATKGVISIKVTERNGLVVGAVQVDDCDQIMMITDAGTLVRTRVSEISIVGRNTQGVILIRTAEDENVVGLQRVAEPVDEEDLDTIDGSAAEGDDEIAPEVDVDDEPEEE
Protocol: (§4) In order to determine the relationship between compounds and antibacterial activity, the inhibitory activity of selected compounds (4d and 4k) against DNA gyrase and topoisomerase IV isolated from Escherichia coli was examined.
(§5) The in vitro antibacterial activity of the target compounds was carried out on by the methods of Sato et al. and Peng and Marians. First, the E. coli suspension is extracted to obtain a crude enzyme solution. After the purification step, the selected compounds are determined by gel electrophoresis to obtain data of different gradient concentrations, thereby calculating the IC50 values.

[6] = molecular target: T2, topoisomerase IV (Escherichia coli, UniProt P0AFI2+P20083); experiment: Topoisomerase IV decatenation inhibition, gel electrophoresis; type: biochemical; conditions: Topoisomerase IV decatenation activity, enzyme isolated from Escherichia coli
T2 construct: First, the E. coli suspension is extracted to obtain a crude enzyme solution; endogenous in cells
T2 sequence (P20083 whole entry): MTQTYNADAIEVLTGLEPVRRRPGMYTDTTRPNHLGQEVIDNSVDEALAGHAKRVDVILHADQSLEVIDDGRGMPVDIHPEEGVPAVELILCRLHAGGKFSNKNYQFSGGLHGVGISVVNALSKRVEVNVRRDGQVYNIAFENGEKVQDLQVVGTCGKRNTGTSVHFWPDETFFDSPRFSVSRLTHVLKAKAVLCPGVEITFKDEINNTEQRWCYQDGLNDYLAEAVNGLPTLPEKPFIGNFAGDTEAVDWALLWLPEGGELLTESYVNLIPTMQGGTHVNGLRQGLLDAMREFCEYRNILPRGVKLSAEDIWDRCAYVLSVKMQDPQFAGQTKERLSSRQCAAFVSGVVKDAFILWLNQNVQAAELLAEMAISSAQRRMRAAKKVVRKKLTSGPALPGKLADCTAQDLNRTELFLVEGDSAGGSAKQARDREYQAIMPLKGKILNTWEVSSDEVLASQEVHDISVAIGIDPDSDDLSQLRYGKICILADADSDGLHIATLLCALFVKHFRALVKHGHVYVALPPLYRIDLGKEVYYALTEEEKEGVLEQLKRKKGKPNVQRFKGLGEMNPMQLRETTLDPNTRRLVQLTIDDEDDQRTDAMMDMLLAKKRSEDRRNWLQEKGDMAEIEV
T2 sequence (P0AFI2 whole entry): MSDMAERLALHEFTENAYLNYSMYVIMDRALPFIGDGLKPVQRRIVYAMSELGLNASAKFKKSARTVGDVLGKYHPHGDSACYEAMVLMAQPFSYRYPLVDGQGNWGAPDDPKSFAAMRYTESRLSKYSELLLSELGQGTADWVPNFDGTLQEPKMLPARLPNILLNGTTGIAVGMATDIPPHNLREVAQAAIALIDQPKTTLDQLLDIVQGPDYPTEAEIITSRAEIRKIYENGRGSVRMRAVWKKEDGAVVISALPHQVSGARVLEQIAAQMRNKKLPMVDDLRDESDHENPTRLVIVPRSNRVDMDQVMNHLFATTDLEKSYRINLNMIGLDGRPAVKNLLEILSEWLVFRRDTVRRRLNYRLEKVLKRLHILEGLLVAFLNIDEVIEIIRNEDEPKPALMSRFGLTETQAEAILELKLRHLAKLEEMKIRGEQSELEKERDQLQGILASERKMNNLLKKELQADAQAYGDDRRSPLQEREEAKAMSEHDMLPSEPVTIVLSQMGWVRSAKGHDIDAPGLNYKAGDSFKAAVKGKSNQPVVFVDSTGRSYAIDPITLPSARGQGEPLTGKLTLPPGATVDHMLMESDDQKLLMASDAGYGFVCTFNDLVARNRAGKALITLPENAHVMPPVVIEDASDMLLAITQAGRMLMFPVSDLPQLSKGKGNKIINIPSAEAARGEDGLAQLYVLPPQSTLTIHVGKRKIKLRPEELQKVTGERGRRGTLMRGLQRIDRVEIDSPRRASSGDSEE
Protocol: as §4, §5

[7] = Salmonella gallinarum ATCC-9184, agar dilution, 37 °C
[8] = Staphylococcus aureus ATCC-12600, agar dilution, 37 °C, 24 h
[9] = Listeria monocytogenes ATCC-15313, agar dilution, 37 °C, 24 h

Structure (SMILES)	MIC S.e [1, 7]	MIC E. c [3]	MIC S.a [4, 8]	MIC L.m [2, 9]	other results
O=C(O)c1cn(C2CC2)c2cc(N3CCNCC3)c(F)cc2c1=O [CIP, Ciprofloxacin, reference compound]	–	–	–	–	MIC [1]: 0.25 µg/mL (≈ 0.754 µM); MIC ([2]; Listeria monocytogenes, ATCC15313, 24 h): 1 µg/mL (≈ 3.02 µM)
Cc1nn(-c2ccccc2)c(Cl)c1C(=O)Oc1ncn(-c2ccccc2)n1 [Compound 4a, 1-phenyl-1H-1,2,4-triazol-3-yl5-chloro-3-methyl-1-phenyl-1H-pyrazole-4-carboxylate]	16 µg/mL (≈ 42.1 µM)	8 µg/mL (≈ 21.1 µM)	16 µg/mL (≈ 42.1 µM)	16 µg/mL (≈ 42.1 µM)	–
Cc1nn(-c2ccc(F)cc2)c(Cl)c1C(=O)Oc1ncn(-c2ccccc2)n1 [Compound 4b, 1-phenyl-1H-1,2,4-triazol-3-yl5-chloro-1-(4-fluorophenyl)-3-methyl-1H-pyrazole-4-carboxylate]	64 µg/mL (≈ 161 µM)	64 µg/mL (≈ 161 µM)	>128 µg/mL	>128 µg/mL	–
Cc1nn(-c2ccc(Cl)cc2)c(Cl)c1C(=O)Oc1ncn(-c2ccccc2)n1 [Compound 4c, 1-phenyl-1H-1,2,4-triazol-3-yl5-chloro-1-(4-chlorophenyl)-3-methyl-1H-pyrazole-4-carboxylate]	64 µg/mL (≈ 154 µM)	64 µg/mL (≈ 154 µM)	64 µg/mL (≈ 154 µM)	>128 µg/mL	–
Cc1ccc(-n2nc(C)c(C(=O)Oc3ncn(-c4ccccc4)n3)c2Cl)cc1 [Compound 4d, 1-phenyl-1H-1,2,4-triazol-3-yl5-chloro-3-methyl-1-(p-tolyl)-1H-pyrazole-4-carboxylate]	–	–	–	–	MIC [1, 7]: 0.5 µg/mL (≈ 1.27 µM); melting point: 154 to 156 °C; IC50 [5]: 34.3 µM; IC50 ([6]; read-out: IC50 Topo IV (converted)): 61.4 µM; MIC ([3]; ATCC25922, 37 °C): 4 µg/mL (≈ 10.2 µM); MIC ([4]; Staphylococcus aureus ATCC-12600, agar dilution, 37 °C, 24 h, read-out: MIC S.a): 4 µg/mL (≈ 10.2 µM); MIC ([4]; Staphylococcus aureus, range stated in text for three compounds, read-out: MIC against Staphylococcus aureus): 4 to 8 µg/mL (≈ 10.2 to 20.3 µM); MIC ([2]; ATCC15313, Listeria monocytogenes ATCC-15313, agar dilution, 37 °C, 24 h): 2 µg/mL (≈ 5.08 µM)
Cc1nn(-c2ccccc2)c(Cl)c1C(=O)Oc1ncn(-c2ccc(F)cc2)n1 [Compound 4e, 1-(4-fluorophenyl)-1H-1,2,4-triazol-3-yl5-chloro-3-methyl-1-phenyl-1H-pyrazole-4-carboxylate]	32 µg/mL (≈ 80.4 µM)	32 µg/mL (≈ 80.4 µM)	64 µg/mL (≈ 161 µM)	32 µg/mL (≈ 80.4 µM)	–
Cc1nn(-c2ccc(F)cc2)c(Cl)c1C(=O)Oc1ncn(-c2ccc(F)cc2)n1 [Compound 4f, 1-(4-fluorophenyl)-1H-1,2,4-triazol-3-yl5-chloro-1-(4-fluorophenyl)-3-methyl-1H-pyrazole-4-carboxylate]	>128 µg/mL	>128 µg/mL	>128 µg/mL	>128 µg/mL	–
Cc1nn(-c2ccc(Cl)cc2)c(Cl)c1C(=O)Oc1ncn(-c2ccc(F)cc2)n1 [Compound 4g, 1-(4-fluorophenyl)-1H-1,2,4-triazol-3-yl5-chloro-1-(4-chlorophenyl)-3-methyl-1H-pyrazole-4-carboxylate]	64 µg/mL (≈ 148 µM)	64 µg/mL (≈ 148 µM)	64 µg/mL (≈ 148 µM)	64 µg/mL (≈ 148 µM)	–
Cc1ccc(-n2nc(C)c(C(=O)Oc3ncn(-c4ccc(F)cc4)n3)c2Cl)cc1 [Compound 4h, 1-(4-fluorophenyl)-1H-1,2,4-triazol-3-yl5-chloro-3-methyl-1-(p-tolyl)-1H-pyrazole-4-carboxylate]	32 µg/mL (≈ 77.7 µM)	32 µg/mL (≈ 77.7 µM)	8 µg/mL (≈ 19.4 µM)	16 µg/mL (≈ 38.9 µM)	–
Cc1nn(-c2ccc(F)cc2)c(Cl)c1C(=O)Oc1ncn(-c2ccc(Cl)cc2)n1 [Compound 4i, 1-(4-chlorophenyl)-1H-1,2,4-triazol-3-yl5-chloro-1-(4-fluorophenyl)-3-methyl-1H-pyrazole-4-carboxylate]	64 µg/mL (≈ 148 µM)	>128 µg/mL	>128 µg/mL	64 µg/mL (≈ 148 µM)	–
Cc1nn(-c2ccc(Cl)cc2)c(Cl)c1C(=O)Oc1ncn(-c2ccc(Cl)cc2)n1 [Compound 4j, 1-(4-chlorophenyl)-1H-1,2,4-triazol-3-yl5-chloro-1-(4-chlorophenyl)-3-methyl-1H-pyrazole-4-carboxylate]	32 µg/mL (≈ 71.3 µM)	64 µg/mL (≈ 143 µM)	64 µg/mL (≈ 143 µM)	64 µg/mL (≈ 143 µM)	–
Cc1ccc(-n2cnc(OC(=O)c3c(C)nn(-c4ccccc4)c3Cl)n2)cc1 [Compound 4k, 1-(p-tolyl)-1H-1,2,4-triazol-3-yl-5-chloro-3-methyl-1-phenyl-1H-pyrazole-4-carboxylate]	4 µg/mL (≈ 10.2 µM)	4 µg/mL (≈ 10.2 µM)	4 µg/mL (≈ 10.2 µM)	8 µg/mL (≈ 20.3 µM)	IC50 Gyrase [5]: 25.7 µg/mL (≈ 65.3 µM); IC50 Topo IV [6]: 33.1 µg/mL (≈ 84 µM)
Cc1ccc(-n2cnc(OC(=O)c3c(C)nn(-c4ccc(F)cc4)c3Cl)n2)cc1 [Compound 4l, 1-(p-tolyl)-1H-1,2,4-triazol-3-yl5-chloro-1-(4-fluorophenyl)-3-methyl-1H-pyrazole-4-carboxylate]	32 µg/mL (≈ 77.7 µM)	32 µg/mL (≈ 77.7 µM)	32 µg/mL (≈ 77.7 µM)	64 µg/mL (≈ 155 µM)	–
